In one assay the target is T1, PDK1 kinase (Homo sapiens, UniProt O15530).
T1 sequence (O15530 1-556): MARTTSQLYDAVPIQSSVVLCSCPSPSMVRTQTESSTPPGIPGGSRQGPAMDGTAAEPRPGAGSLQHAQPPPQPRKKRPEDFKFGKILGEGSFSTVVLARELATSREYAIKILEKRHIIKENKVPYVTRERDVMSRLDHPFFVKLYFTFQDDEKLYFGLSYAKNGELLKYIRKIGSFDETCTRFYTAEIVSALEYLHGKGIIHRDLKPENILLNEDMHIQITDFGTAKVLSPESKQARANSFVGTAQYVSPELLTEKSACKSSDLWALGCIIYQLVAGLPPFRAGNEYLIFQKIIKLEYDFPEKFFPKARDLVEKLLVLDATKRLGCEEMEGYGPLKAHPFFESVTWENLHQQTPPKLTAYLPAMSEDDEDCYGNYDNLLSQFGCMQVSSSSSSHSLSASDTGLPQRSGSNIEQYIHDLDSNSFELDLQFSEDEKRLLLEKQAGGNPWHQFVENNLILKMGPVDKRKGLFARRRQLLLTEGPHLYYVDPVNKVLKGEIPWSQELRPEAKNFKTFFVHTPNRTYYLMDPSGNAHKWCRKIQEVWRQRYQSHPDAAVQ
In words: PDK1 Kinase Alpha Screen Assay. Format: biochemical. As to conditions: read-out: PDK1 IC50. The protocol:
1. PDK1 Kinase Alpha Screen Assay
Reagents/Concentrations: The PDK1-4 peptide substrate, biotin-[…]-NH2, was purchased from the Tufts University Core Facility. The final concentration of PDK1-4 peptide substrate was 50 nM The ATP substrate (Adenosine-5′-triphosphate) was purchased from Roche Diagnostics. The final concentration of ATP substrate was 10 uM. Phospho-(Ser/Thr) PKA substrate antibody was purchased from Cell Signaling Technology. The final concentration of antibody was 0.3 mg/ml. The Alpha Screen Protein A detection kit containing donor and acceptor beads was purchased from PerkinElmer Life Sciences. The final concentration of both donor and acceptor beads was 25 μg/ml. Alpha Screen was used for detection. The biotinylated-PDK1-4 peptide was phosphorylated by PDK1 kinase using the ATP substrate. The biotinylated-PDK1-4 peptide substrate was bound to the streptavidin coated donor bead. The antibody was bound to the protein A coated acceptor bead. The antibody bound to the phosphorylated form of the biotinylated PDK-1 peptide substrate, bringing the donor and acceptor beads into close proximity. Laser irradiation of the donor bead at 680 nm generated a flow of short-lived singlet oxygen molecules. When the donor and acceptor beads were in close proximity, the reactive oxygen generated by the irradiation of the donor beads initiated a luminescence/fluorescence cascade in the acceptor beads. This process led to a highly amplified signal with output in the 530-620 nm range. Assays were carried out in 50 mM Tris, pH=7.5, 10 mM MgCl2, 0.1% Bovine Serum Albumin, 0.01% Tween-20, 2 mM Dithiolthreitol, 2.5% Dimethyl Sulfoxide. Reactions were stopped by adding 50 mM Tris, pH=7.5, 90 mM EDTA, 0.1% Bovine Serum Albumin, 0.01% Tween-20.
Procedure: To 10 μl of PDK1-4 peptide, 0.5 μl of test compound in dimethyl sulfoxide is added. PDK1 kinase and ATP are mixed. 10 μl of the PDK1 kinase/ATP mix is added to start the reaction. The reaction is allowed to proceed for 3-18 hours. The reactions are stopped by adding 10 μl of the EDTA-containing stop buffer. Beads are mixed with antibody. 25 μl of the bead/antibody mix is added to the stopped reactions. Plates are incubated at room temperature overnight to allow for detection development before being read. The assay is run is a 384-well format. […]

In another assay the test system is PC-3 cells. In words: Cell Proliferation Assay (Cell Titer Glo), PC-3 cell line. Format: cell-based. As to conditions: Homo sapiens. In a few lines:
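PC-3 cells, 1000 cells/well, left to adhere 3-5 h, then exposed for 3 days at 37° C to compounds as 1:3 serial dilutions from 500× DMSO stocks diluted in growth medium. Medium then replaced with fresh medium and viability read by Cell Titer Glo luminescence.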

[1] abbreviates: PC-3, 72 h, PC-3 cells, 3 days incubation, read-out: CP EC50 PC3.
Where [2] appears, read: PC-3, Cell Proliferation Assay, PC3, read-out: CPEC50 PC3.

Each structure is given as a SMILES string. Where two headings read alike, the source gives them in different places.

Take `CC(C)NC(=O)Cc1cccc(Nc2ncc3cccc(OC4CCN(C(C)C)CC4)c3n2)c1` [Compound 79, N-Isopropyl-2-{3-[8-(1-isopropyl-piperidin-4-yloxy)-quinazolin-2-ylamino]-phenyl}-acetamide]: at PDK1 kinase, the IC50 was below 5 µM. Also, the EC50 in the assay with PC-3 cells (setting [1]) is below 5 µM.
Turning to `CC(C)N1CCC(Oc2cccc3cnc(Nc4cccc(N5CCOCC5)c4)nc23)CC1` [Compound 80, [8-(1-Isopropyl-piperidin-4-yloxy)-quinazolin-2-yl]-(3-morpholin-4-yl-phenyl)-amine], at PDK1 kinase, the IC50 was below 5 µM. Besides, the EC50 in the assay on PC-3 cells (setting [1]) lay within 5 to 10 µM.
For `CNS(=O)(=O)Cc1ccc(Nc2ncc3cccc(OC4CCN(C(C)C)CC4)c3n2)cc1` [Compound 82, C-{4-[8-(1-Isopropyl-piperidin-4-yloxy)-quinazolin-2-ylamino]-phenyl}-N-methyl-methanesulfonamide], in that order: below 5 µM and below 5 µM.
Taken in the same sequence, the figures for `CC(C)N1CCC(Oc2cccc3cnc(Nc4ccc(F)cc4)nc23)CC1` [Compound 83, (4-Fluoro-phenyl)-[8-(1-isopropyl-piperidin-4-yloxy)-quinazolin-2-yl]-amine] were below 5 µM and 5 to 10 µM.
Taken in the same sequence, the figures for `CC(C)N1CCC(Oc2cccc3cnc(Nc4ccc(Cl)cc4)nc23)CC1` [Compound 84] were below 5 µM and below 5 µM.
In the case of `CC(C)N1CCC(Oc2cccc3cnc(Nc4ccc(C(F)(F)F)cc4)nc23)CC1` [Compound 85, [8-(1-Isopropyl-piperidin-4-yloxy)-quinazolin-2-yl]-(4-trifluoromethyl-phenyl)-amine], the half-inhibitory concentration (IC50) on PDK1 kinase is below 5 µM. Further, the EC50 with PC-3 cells (setting [1]) was below 5 µM.
Regarding `CC(C)N1CCC(Oc2ccc3cnc(Nc4ccc(C(F)(F)F)cc4)nc3c2)CC1` [Compound 318, 7-(1-isopropylpiperidin-4-yloxy)-N-(4-(trifluoromethyl)phenyl)quinazolin-2-amine], the IC50 on PDK1 kinase (PDK1 Kinase Alpha Screen Assay) is below 5 µM. Moreover, the EC50 with PC-3 cells (setting [2]) is below 5 µM.
As to `CC(C)N1CCC(Oc2ccc3cnc(Nc4ccc(OC(F)(F)F)cc4)nc3c2)CC1` [Compound 319, 7-(1-isopropylpiperidin-4-yloxy)-N-(4-(trifluoromethoxy)phenyl)quinazolin-2-amine], the half-inhibitory concentration (IC50) at PDK1 kinase (PDK1 Kinase Alpha Screen Assay) is below 5 µM. In addition, in the assay on PC-3 cells (setting [2]), the EC50 is below 5 µM.
With `CC(=O)Nc1ccc(Nc2ncc3ccc(OC4CCN(C(C)C)CC4)cc3n2)cc1Cl` [Compound 320, N-(2-chloro-4-(7-(1-isopropylpiperidin-4-yloxy)quinazolin-2-ylamino)phenyl)acetamide], the IC50 at PDK1 kinase (PDK1 Kinase Alpha Screen Assay) was below 5 µM. Moreover, in the assay on PC-3 cells (setting [2]), the EC50 is below 5 µM.
In the case of `COc1cc(S(N)(=O)=O)c(OC)cc1Nc1ncc2ccc(OC3CCNCC3)cc2n1` [Compound 321, 2,5-dimethoxy-4-(7-(piperidin-4-yloxy)quinazolin-2-ylamino)benzenesulfonamide], the half-maximal inhibitory concentration (IC50) at PDK1 kinase (PDK1 Kinase Alpha Screen Assay) is below 5 µM. The EC50 in the assay on PC-3 cells (setting [2]) lay in the range of 5 to 10 µM.
For `Cc1ccc(Nc2ncc3ccc(OC4CCNCC4)cc3n2)cc1NS(C)(=O)=O` [Compound 325], in that order: below 5 µM and 5 to 10 µM.
Taken in the same sequence, the figures for `CC(C)N1CCC(c2c(O)ccc3cnc(Nc4nc5ccccc5s4)nc23)CC1` [Compound 326, 2-(benzo[d]thiazol-2-ylamino)-8-(1-isopropylpiperidin-4-yl)quinazolin-7-ol] were below 5 µM and 5 to 10 µM.
Taken in the same sequence, the figures for `Cc1cc(Nc2ncc3ccc(OC4CCN(C(C)C)CC4)cc3n2)ccc1F` [Compound 327, N-(4-fluoro-3-methylphenyl)-7-(1-isopropyl-piperidin-4-yloxy)-quinazolin-2-amine] were below 5 µM and 5 to 10 µM.
As to `CC(C)N1CCC(c2c(O)ccc3cnc(Nc4ccc(N5CCOCC5)cc4)nc23)CC1` [Compound 328, 8-(1-isopropylpiperidin-4-yl)-2-(4-morpholinophenylamino)quinazolin-7-ol], at PDK1 kinase (PDK1 Kinase Alpha Screen Assay), the concentration for half-maximal inhibition (IC50) was below 5 µM. The EC50 in the assay on PC-3 cells (setting [2]) is below 5 µM.
For `CC(C)NC(=O)c1ccc(Nc2ncc3ccc(OC4CCN(C(C)C)CC4)cc3n2)cc1` [Compound 329, N-isopropyl-4-(7-(1-isopropylpiperidin-4-yloxy)quinazolin-2-ylamino)benzamide], the IC50 on PDK1 kinase (PDK1 Kinase Alpha Screen Assay) is below 5 µM. Also, the EC50 with PC-3 cells (setting [2]) is below 5 µM.
Turning to `O=c1[nH]c2ccc(Nc3ncc4ccc(OC5CCNCC5)cc4n3)cc2[nH]1` [Compound 330, 5-(7-(piperidin-4-yloxy)-quinazolin-2-ylamino]-1H-benzo[d]imidazol-2(3H)-one], the concentration for half-maximal inhibition (IC50) at PDK1 kinase (PDK1 Kinase Alpha Screen Assay) was below 5 µM. Besides, in the assay with PC-3 cells (setting [2]), the EC50 fell in the range of 5 to 10 µM.
For the molecule `CC(C)N1CCC(Oc2ccc3cnc(Nc4ccc(S(C)(=O)=O)cc4)nc3c2)CC1` [Compound 331, 7-(1-isopropylpiperidin-4-yloxy)-N-(4-(methylsulfonyl)phenyl)quinazolin-2-amine], the half-inhibitory concentration (IC50) on PDK1 kinase (PDK1 Kinase Alpha Screen Assay) is below 5 µM. Further, in the assay with PC-3 cells (setting [2]), the EC50 was below 5 µM.
As to `O=S(=O)(c1ccc(Nc2ncc3ccc(OC4CCNCC4)cc3n2)cc1)N1CCOCC1` [Compound 332], the IC50 at PDK1 kinase (PDK1 Kinase Alpha Screen Assay) is below 5 µM. Moreover, the EC50 in the assay on PC-3 cells (setting [2]) is below 5 µM.
Take `O=S(=O)(c1ccc(Nc2ncc3ccc(OC4CCN(CCF)CC4)cc3n2)cc1)N1CCOCC1` [Compound 333, 7-(1-(2-fluoroethyl)piperidine-4-yloxy)-N-(4-(morpholinosulfonyl)phenyl)quinazolin-2-amine]: at PDK1 kinase (PDK1 Kinase Alpha Screen Assay), the IC50 is below 5 µM. Also, the EC50 with PC-3 cells (setting [2]) was below 5 µM.
Consider `O=S(=O)(c1ccc(Nc2ncc3ccc(OC4CCN(CC(F)F)CC4)cc3n2)cc1)N1CCOCC1` [Compound 334, 7-(1-(2,2-difluoroethyl)piperidin-4-yloxy)-N-(4-(morpholinosulfonyl)phenyl)quinazolin-2-amine], for which the IC50 at PDK1 kinase (PDK1 Kinase Alpha Screen Assay) is below 5 µM. Besides, the EC50 with PC-3 cells (setting [2]) lay in the range of 5 to 10 µM.
Taken in the same sequence, the figures for `Fc1ccc(Nc2ncc3cccc(OC4CCNCC4)c3n2)cc1` [Compound 335] were below 5 µM and below 5 µM.
For `Brc1ccc(OC2CCNCC2)c2nc(Nc3cccc(N4CCOCC4)c3)ncc12` [Compound 336, 5-bromo-N-(3-morpholinophenyl)-8-(piperidin-4-yloxy)quinazolin-2-amine], in that order: below 5 µM and 5 to 10 µM.
For the molecule `CC(C)NC(=O)c1ccc(Nc2ncc3c(Br)ccc(OC4CCNCC4)c3n2)cc1` [Compound 337, 4-(5-bromo-8-(piperidin-4-yloxy)quinazolin-2-ylamino)-N-isopropylbenzamide], the half-inhibitory concentration (IC50) at PDK1 kinase (PDK1 Kinase Alpha Screen Assay) is below 5 µM. The EC50 with PC-3 cells (setting [2]) was below 5 µM.
In the case of `Clc1cc(Nc2ncc3c(Br)ccc(OC4CCNCC4)c3n2)ccc1N1CCOCC1` [Compound 338, 5-bromo-N-(3-chloro-4-morpholinophenyl)-8-(piperidine-4-yloxy) quinazolin-2-amine], the IC50 at PDK1 kinase (PDK1 Kinase Alpha Screen Assay) was below 5 µM. Besides, in the assay on PC-3 cells (setting [2]), the EC50 was below 5 µM.
Consider `Fc1cc(Nc2ncc3c(Br)ccc(OC4CCNCC4)c3n2)ccc1N1CCOCC1` [Compound 339, 5-bromo-N-(3-fluoro-4-morpholinophenyl)-8-(piperidin-4-yloxy)quinazolin-2-amine], for which the half-maximal inhibitory concentration (IC50) at PDK1 kinase (PDK1 Kinase Alpha Screen Assay) was below 5 µM. Further, the EC50 with PC-3 cells (setting [2]) is below 5 µM.
`Cc1ccc(OC2CCNCC2)c2nc(Nc3ccc(C(=O)NC(C)C)cc3)ncc12` [Compound 340, N-isopropyl-4-(5-methyl-8-(piperidin-4-yloxy)quinazolin-2-ylamino)benzamide]: the IC50 at PDK1 kinase (PDK1 Kinase Alpha Screen Assay) is below 5 µM. Also, the EC50 in the assay with PC-3 cells (setting [2]) lay in the range of 5 to 10 µM.

The record behind these values is patent US7932262B2 (Novartis AG, priority 2006, dated 2011).
